Reference: ChEMBL document CHEMBL4393668, “Discovery and Characterization of XY101, a Potent, Selective, and Orally Bioavailable RORγ Inverse Agonist for Treatment of Castration-Resistant Prostate Cancer” (J Med Chem, 2019)

How the values were obtained:
[1] = target: T1, Nuclear receptor ROR-gamma (Homo sapiens) (UniProt P51449)
T1 sequence (whole entry): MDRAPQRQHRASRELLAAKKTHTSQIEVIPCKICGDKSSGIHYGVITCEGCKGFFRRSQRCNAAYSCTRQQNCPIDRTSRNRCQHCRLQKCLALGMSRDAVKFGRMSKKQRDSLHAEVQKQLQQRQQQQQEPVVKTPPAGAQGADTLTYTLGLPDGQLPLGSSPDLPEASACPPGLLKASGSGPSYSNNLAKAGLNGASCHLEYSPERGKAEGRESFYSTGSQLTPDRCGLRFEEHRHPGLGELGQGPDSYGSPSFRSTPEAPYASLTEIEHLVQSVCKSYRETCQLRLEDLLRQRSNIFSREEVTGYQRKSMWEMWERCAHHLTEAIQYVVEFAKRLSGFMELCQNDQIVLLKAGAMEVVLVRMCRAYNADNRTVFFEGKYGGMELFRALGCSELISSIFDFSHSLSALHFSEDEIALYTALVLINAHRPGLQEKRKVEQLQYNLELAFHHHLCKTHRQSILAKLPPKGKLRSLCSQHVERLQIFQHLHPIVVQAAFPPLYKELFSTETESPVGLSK

[2] = target: T2, Nuclear receptor ROR-gamma (Homo sapiens, UniProt P51449); assay: Inverse agonist activity at Gal4-fused RORgamma LBD (unknown origin) expressed in 293T cells measured after 24 hrs by dual-luciferase reporter gene assay; type: cell-based
T2 sequence (P51449 whole entry): T1 sequence (whole entry)

[3] = in vivo; settings: Sprague-Dawley, rat, iv, 2 mg/kg
[4] = in vivo; settings: Sprague-Dawley, rat, po, 10 mg/kg
[5] = in vivo; settings: Sprague-Dawley, rat, iv, 2 mg/kg; remark: listed apart in the source
[6] = target: T3, Nuclear receptor ROR-beta (Homo sapiens, UniProt Q92753)
T3 sequence (Q92753 whole entry): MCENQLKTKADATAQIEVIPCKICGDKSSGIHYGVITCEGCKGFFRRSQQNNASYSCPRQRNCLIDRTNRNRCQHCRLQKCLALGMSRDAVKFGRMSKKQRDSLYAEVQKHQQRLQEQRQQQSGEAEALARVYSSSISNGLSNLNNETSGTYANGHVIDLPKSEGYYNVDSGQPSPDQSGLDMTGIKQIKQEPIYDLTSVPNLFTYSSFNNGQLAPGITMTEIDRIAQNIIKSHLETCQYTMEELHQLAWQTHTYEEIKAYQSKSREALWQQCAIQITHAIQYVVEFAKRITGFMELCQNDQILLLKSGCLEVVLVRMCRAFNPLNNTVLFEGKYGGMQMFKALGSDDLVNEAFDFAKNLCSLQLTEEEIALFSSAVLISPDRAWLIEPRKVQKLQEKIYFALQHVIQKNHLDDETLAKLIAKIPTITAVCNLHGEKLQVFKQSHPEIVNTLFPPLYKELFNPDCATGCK

[7] = in vivo; settings: Sprague-Dawley, rat, iv, 2 mg/kg; remark: listed apart in the source
Description: Half life in Sprague-Dawley rat at 2 mg/kg, iv

[8] = in vivo; settings: Sprague-Dawley, rat, po, 10 mg/kg; remark: listed apart in the source
[9] = in vivo; settings: Sprague-Dawley, rat, po, 10 mg/kg; remark: listed apart in the source
[10] = in vivo; settings: Sprague-Dawley, rat, po, 10 mg/kg; remark: listed apart in the source
[11] = target: T4, Bile acid receptor (Homo sapiens, UniProt Q96RI1)
T4 sequence (Q96RI1 whole entry): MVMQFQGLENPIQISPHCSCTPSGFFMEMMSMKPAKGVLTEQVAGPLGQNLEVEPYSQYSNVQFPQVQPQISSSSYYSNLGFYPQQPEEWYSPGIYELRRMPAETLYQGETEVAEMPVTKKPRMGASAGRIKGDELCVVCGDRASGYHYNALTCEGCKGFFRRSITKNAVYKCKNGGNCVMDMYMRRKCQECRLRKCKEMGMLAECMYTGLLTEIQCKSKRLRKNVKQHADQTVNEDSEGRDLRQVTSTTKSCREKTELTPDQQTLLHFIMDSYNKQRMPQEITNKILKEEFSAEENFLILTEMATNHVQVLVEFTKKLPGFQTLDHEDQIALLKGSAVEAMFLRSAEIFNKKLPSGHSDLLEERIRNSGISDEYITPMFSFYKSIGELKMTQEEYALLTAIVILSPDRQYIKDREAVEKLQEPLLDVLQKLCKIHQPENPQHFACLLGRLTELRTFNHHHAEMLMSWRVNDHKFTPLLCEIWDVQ

[12] = in vivo; settings: Sprague-Dawley, rat, iv, 2 mg/kg; remark: listed apart in the source
[13] = rat, in vivo, iv, 2 mg/kg
Description: Apparent volume of distribution in Sprague-Dawley rat at 2 mg/kg, iv

[14] = target: T5, Oxysterols receptor LXR-alpha (Homo sapiens, UniProt Q13133)
T5 sequence (Q13133 whole entry): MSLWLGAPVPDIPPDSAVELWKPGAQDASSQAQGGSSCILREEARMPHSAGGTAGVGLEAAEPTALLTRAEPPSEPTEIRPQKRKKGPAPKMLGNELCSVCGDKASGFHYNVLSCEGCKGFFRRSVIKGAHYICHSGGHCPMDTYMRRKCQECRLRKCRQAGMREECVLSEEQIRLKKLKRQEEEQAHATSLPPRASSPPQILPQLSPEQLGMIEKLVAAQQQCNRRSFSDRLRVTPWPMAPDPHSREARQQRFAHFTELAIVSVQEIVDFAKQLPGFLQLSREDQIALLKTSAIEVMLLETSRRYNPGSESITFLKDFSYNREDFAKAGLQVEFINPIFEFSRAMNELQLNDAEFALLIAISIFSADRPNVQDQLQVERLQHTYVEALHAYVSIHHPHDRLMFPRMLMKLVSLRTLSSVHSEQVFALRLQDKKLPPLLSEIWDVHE

[15] = in vitro; settings: rat, liver microsomes
Description: Stability in rat liver microsomes assessed as parent compound remaining at 10 uM measured after 60 mins by LC-MS/MS analysis

[16] = target: T6, Nuclear receptor ROR-alpha (Homo sapiens, UniProt P35398)
T6 sequence (P35398 whole entry): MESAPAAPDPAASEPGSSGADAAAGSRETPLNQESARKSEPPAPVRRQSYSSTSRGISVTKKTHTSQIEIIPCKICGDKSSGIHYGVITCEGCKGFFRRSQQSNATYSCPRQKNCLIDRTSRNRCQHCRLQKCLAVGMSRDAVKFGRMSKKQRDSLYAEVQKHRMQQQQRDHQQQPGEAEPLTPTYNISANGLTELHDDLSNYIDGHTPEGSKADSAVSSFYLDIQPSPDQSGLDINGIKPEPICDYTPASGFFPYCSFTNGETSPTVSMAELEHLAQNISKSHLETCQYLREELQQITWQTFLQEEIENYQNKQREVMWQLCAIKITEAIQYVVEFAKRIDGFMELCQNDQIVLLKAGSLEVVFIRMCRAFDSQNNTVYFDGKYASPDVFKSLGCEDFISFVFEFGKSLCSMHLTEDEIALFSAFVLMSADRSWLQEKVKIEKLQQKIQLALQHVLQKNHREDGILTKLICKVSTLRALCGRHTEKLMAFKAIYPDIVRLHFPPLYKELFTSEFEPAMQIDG

[17] = in vivo; settings: Sprague-Dawley, rat, iv, 2 mg/kg; remark: listed apart in the source
[18] = in vivo; settings: Sprague-Dawley, rat, po, 10 mg/kg; remark: listed apart in the source
Description: Half life in Sprague-Dawley rat at 10 mg/kg, po

[19] = in vivo; settings: Sprague-Dawley, rat, po, 10 mg/kg; remark: listed apart in the source
[20] = target: T2, Nuclear receptor ROR-gamma; assay: Inverse agonist activity at human N-terminal His6-tagged RORgamma (262 to 507 residues) expressed in Escherichia coli BL21 (DE3) assessed as inhibition of biotinylated co-activator SRC1-4 peptide recruitment by alphascreen assay
[21] = target: T6, Nuclear receptor ROR-alpha; remark: listed apart in the source
[22] = target: T7, Bile acid receptor (Homo sapiens) (UniProt Q96RI1); assay: Inverse agonist activity at Gal4-fused FXR LBD (unknown origin) expressed in 293T cells measured after 24 hrs by dual-luciferase reporter gene assay relative to control; type: cell-based
T7 sequence (whole entry): T4 sequence (Q96RI1 whole entry)

[23] = target: T4, Bile acid receptor; remark: listed apart in the source
[24] = target: T1, Nuclear receptor ROR-gamma (Homo sapiens); assay: Inverse agonist activity at Gal4-fused RORgamma LBD (unknown origin) expressed in 293T cells measured after 24 hrs by dual-luciferase reporter gene assay relative to control; type: cell-based

| Structure (SMILES) | ΔTm [1] [°C] | IC50 [2] [nM] | also measured |
| --- | --- | --- | --- |
| O=[N+]([O-])c1ccccc1CS(=O)(=O)Nc1ccc(-c2ccc(C(O)(C(F)(F)F)C(F)(F)F)cc2F)cc1 | 1 | 7660 |  |
| O=C(Cc1ccc([N+](=O)[O-])cc1)Nc1ccc(-c2ccc(C(O)(C(F)(F)F)C(F)(F)F)cc2F)cc1 | 6 |  |  |
| COC(=O)c1ccccc1CS(=O)(=O)Nc1ccc(-c2ccc(C(O)(C(F)(F)F)C(F)(F)F)cc2F)cc1 | 2 | 2960 |  |
| O=C(Cc1ccccc1[N+](=O)[O-])Nc1ccc(-c2ccc(C(O)(C(F)(F)F)C(F)(F)F)cc2F)cc1 | 4.2 |  | Cmax [3]: 839 ng/mL; bioavailability [4]: 19%; AUC(0-t) [5]: 3340 ng·h/mL; IC50 [6]: Not Active; half-life [7]: 7.67 h; Cmax [8]: 721 ng/mL; AUC(0-t) [9]: 3220 ng·h/mL; Tmax [10]: 8 h; IC50 [11]: Not Active; AUC(0-inf) [12]: 6440 ng·h/mL; Vz [13]: 3425 mg/kg; IC50 [14]: Not Active; remaining at 1 h, 10 µM [15]: 79% |
| CS(=O)(=O)c1ccc(CC(=O)Nc2ccc(-c3ccc(C(O)(C(F)(F)F)C(F)(F)F)cc3F)cc2)cc1 | 7.8 |  | Cmax [3]: 980 ng/mL; IC50 [16]: Not Active; bioavailability [4]: 52%; AUC(0-t) [5]: 7660 ng·h/mL; IC50 [6]: Not Active; Tmax [17]: 4.8 min; half-life [7]: 12.7 h; Cmax [8]: 1420 ng/mL; AUC(0-t) [9]: 21600 ng·h/mL; IC50 [11]: Not Active; half-life [18]: 8.67 h; AUC(0-inf) [12]: 10400 ng·h/mL; AUC(0-inf) [19]: 24500 ng·h/mL; Vz [13]: 3544 mg/kg; IC50 [14]: Not Active; remaining at 1 h, 10 µM [15]: 78% |
| CNC(=O)c1ccc(CS(=O)(=O)Nc2ccc(-c3ccc(C(O)(C(F)(F)F)C(F)(F)F)cc3F)cc2)cc1 | 0 | 8050 |  |
| CCCCC(=O)Nc1ccc(-c2ccc(C(O)(C(F)(F)F)C(F)(F)F)cc2F)cc1 | 6.3 |  |  |
| O=[N+]([O-])c1ccc(CS(=O)(=O)Nc2ccc(-c3ccc(C(O)(C(F)(F)F)C(F)(F)F)cc3F)cc2)cc1 | 1.5 | 2220 |  |
| CS(=O)(=O)c1ccc(CS(=O)(=O)Nc2ccc(-c3ccc(C(O)(C(F)(F)F)C(F)(F)F)cc3F)cc2)cc1 | 1 | 7760 |  |
| N#Cc1ccc(CS(=O)(=O)Nc2ccc(-c3ccc(C(O)(C(F)(F)F)C(F)(F)F)cc3F)cc2)cc1 | 0 | 7550 |  |
| NC(=O)c1ccc(CS(=O)(=O)Nc2ccc(-c3ccc(C(O)(C(F)(F)F)C(F)(F)F)cc3F)cc2)cc1 | 0 | 8720 |  |
| Nc1ccccc1CC(=O)Nc1ccc(-c2ccc(C(O)(C(F)(F)F)C(F)(F)F)cc2F)cc1 | 1.5 |  |  |
| COC(=O)c1ccc(CS(=O)(=O)Nc2ccc(-c3ccc(C(O)(C(F)(F)F)C(F)(F)F)cc3F)cc2)cc1 | 8 | 90 | IC50 [16]: Not Active; IC50 [20]: 4830 nM; IC50 [6]: Not Active; IC50 [11]: Not Active; IC50 [14]: Not Active |
| O=[N+]([O-])c1cccc(CS(=O)(=O)Nc2ccc(-c3ccc(C(O)(C(F)(F)F)C(F)(F)F)cc3F)cc2)c1 | 3.5 | 1490 |  |
| O=C(O)c1ccc(CS(=O)(=O)Nc2ccc(-c3ccc(C(O)(C(F)(F)F)C(F)(F)F)cc3F)cc2)cc1 | 0 |  | Activity [24]: 23% |
| COC(=O)c1cccc(CS(=O)(=O)Nc2ccc(-c3ccc(C(O)(C(F)(F)F)C(F)(F)F)cc3F)cc2)c1 | 4 | 4240 |  |

The next lines start with results.

| ΔTm [1] [°C] | IC50 [2] [nM] | Structure (SMILES) | also measured |
| --- | --- | --- | --- |
| 5.2 | 1980 | O=C(CCc1ccccc1)Nc1ccc(-c2ccc(C(O)(C(F)(F)F)C(F)(F)F)cc2F)cc1 |  |
| 5.2 | 460 | COC(=O)CCC(=O)Nc1ccc(-c2ccc(C(O)(C(F)(F)F)C(F)(F)F)cc2F)cc1 |  |
| 5 | 1520 | CC(=O)CCCC(=O)Nc1ccc(-c2ccc(C(O)(C(F)(F)F)C(F)(F)F)cc2F)cc1 |  |
| 5.9 | 1830 | CCCCCC(=O)Nc1ccc(-c2ccc(C(O)(C(F)(F)F)C(F)(F)F)cc2F)cc1 |  |
| 6.5 | 1080 | O=C(CCCC1CCCCC1)Nc1ccc(-c2ccc(C(O)(C(F)(F)F)C(F)(F)F)cc2F)cc1 |  |
| 5.4 | 930 | COC(=O)CCCC(=O)Nc1ccc(-c2ccc(C(O)(C(F)(F)F)C(F)(F)F)cc2F)cc1 |  |
| 7.8 | 3080 | O=C(CCC(F)(F)F)Nc1ccc(-c2ccc(C(O)(C(F)(F)F)C(F)(F)F)cc2F)cc1 |  |
| 1.5 |  | Nc1ccc(CC(=O)Nc2ccc(-c3ccc(C(O)(C(F)(F)F)C(F)(F)F)cc3F)cc2)cc1 |  |
| 5.8 | 820 | CCCCCCC(=O)Nc1ccc(-c2ccc(C(O)(C(F)(F)F)C(F)(F)F)cc2F)cc1 | IC50 [21]: 1740 nM; IC50 [20]: 5310 nM; IC50 [6]: Not Active; %max [22]: 93%; IC50 [23]: 1250 nM; IC50 [14]: Not Active |
